Source: patent publication EP4799619A1, “COMPOUND TARGETING EGR-1 AND USE THEREOF FOR TREATMENT OF ATOPIC DERMATITIS” (AgeraMedi, Inc., priority 2023, dated 2025)

Columns and labels:
IL-1β = assay: RT-PCR of EGR-1 target gene mRNA in TNFα-stimulated HaCaT cells: IL-1β; format: cell-based, human; conditions: 0, 5, 10, and 20 µM for 30 minutes, then TNFα 10 ng/mL for 12 hours, FIG. 14
Method: (§1) To determine whether the compounds of the present invention (Compounds 21, 23, and 25) inhibit expression of TSLP, IL-1β, and IL-6 genes, which are EGR-1 target genes playing a key role in atopic dermatitis exacerbation, the inhibitory effect of the compounds on mRNA expression of an EGR-1 target gene TSLP was evaluated by reverse transcription-polymerase chain reaction (RT-PCR) in HaCaT keratinocyte cells.
(§2) Specifically, HaCaT keratinocyte cells (purchased from Cell Lines Service, Eppelheim, Germany) were passaged at a seeding density of 1x10^6 cells per 100 mm cell culture dish in Dulbecco's modified Eagle's medium (Invitrogen Life Technologies) containing 10% fetal bovine serum (Invitrogen Life Technologies) and antibiotic-antifungal agent mix solution (Invitrogen Life Technologies), once every two days, and cultured at 37 °C in a 5% CO2 incubator.
(§3) HaCaT cells were treated with the compounds of the present invention (Compound 21, Compound 23, and Compound 25) at concentrations of 0, 5, 10, and 20 µM, respectively, for 30 minutes, followed by treatment with TNFα in a concentration of 10 ng/mL for 12 hours, after which the cells were harvested. Total RNA was extracted using TRIzol RNA isolation reagents (TRIzol Life Technologies Korea). A total of 0.5 µg of total RNA was reverse transcribed to synthesize complementary DNA (cDNA) according to the method recommended by the manufacturer using an iScript cDNA synthesis kit (Bio-Rad, Hercules, Calif., U.S.A.). PCR was performed using 0.0125 µg of double-stranded cDNA.
(§4) Glyceraldehyde-3-phosphate dehydrogenase (GAPDH), a housekeeping gene, was used as the control group. The double-stranded cDNA was denatured at 95 °C for 5 minutes and then subjected to cycles of reaction at 94 °C for 1 minute, 65 °C for 2 minutes, and 70 °C for 1 minute, repeated 30 times. The final product of PCR was electrophoresed on 1% agarose gel, stained with ethidium bromide (EtBr), and confirmed.

[1] = tested on: animal model of atopic dermatitis; assay: DNCB-induced animal model of atopic dermatitis, topical application; format: in vivo, BALB/c mice; conditions: 0.1% applied to ear; for epidermal thickness / dermal thickness: day 22, H&E staining; for epidermal thickness: normal 24.47±2.353, DNCB only 37.27±4.393; for dermal thickness: normal 143.2±19.61, DNCB only 197.5±17.83; for macroscopic skin condition: day 22, FIG. 15B; for expression of filaggrin / expression of TSLP: immunofluorescence of skin tissue; for expression of filaggrin: FIG. 17B; for expression of TSLP: compared to positive control group, FIG. 17A; for expression of MPO (neutrophil marker) / expression of F4/80 (macrophage marker): immunohistochemistry; for expression of MPO (neutrophil marker): FIG. 16C; for expression of F4/80 (macrophage marker): FIG. 16D; for mast cell infiltration / number of mast cells infiltrated: toluidine blue staining; for mast cell infiltration: compared to the positive control group, FIG. 16A; for number of mast cells infiltrated: normal 11±3, DNCB 38±6
TSLP = assay: RT-PCR of EGR-1 target gene mRNA in TNFα-stimulated HaCaT cells: TSLP; format: cell-based, human; conditions: 0, 5, 10, and 20 µM for 30 minutes, then TNFα 10 ng/mL for 12 hours, FIG. 14
Method: as §1, §2, §3, §4

IL-6 = assay: RT-PCR of EGR-1 target gene mRNA in TNFα-stimulated HaCaT cells: IL-6; format: cell-based, human; conditions: 0, 5, 10, and 20 µM for 30 minutes, then TNFα 10 ng/mL for 12 hours, FIG. 14
Method: as §1, §2, §3, §4

EGR-1 [2] = molecular target: T1, EGR-1 (Homo sapiens, UniProt P18146); assay: EGR-1 DNA binding activity assay (EDBA); design: made in house; conditions: EGR-1 DNA binding inhibitory activity; EGR-1 overexpressing cell lysate; absorbance at 450 nm; compound concentration not given
Method: In this experiment, the inhibitory effect of the compounds of the present invention on EGR-1 binding activity was evaluated using an EGR-1 DNA binding activity assay (EDBA).
Single-stranded sense and antisense oligonucleotides of the following EGR-1 binding sequence (EBS) were prepared by outsourcing to Bioneer Co., Ltd. (Daejeon, Korea). In this case, the 5'-end of the sense oligonucleotide was labeled with biotin. The sense and antisense oligonucleotides were heated at 95 °C for 5 minutes and then left overnight at room temperature to hybridize the sense and antisense oligonucleotides. Hereinafter, the hybridized sense and antisense oligonucleotides are referred to as biotin-EBS. • Sense sequence: biotin-5'-[…]-3' • Antisense sequence: 5'-[…]-3'
Avidin protein was coated on a 96-well plate (purchased from Thermo Fisher Scientific), and biotin-EBS was added to the plate at a concentration of 0.5 pmol/50 µL/well, followed by reaction at 37 °C for 1 hour to allow biotin-EBS oligonucleotide to be attached to the plate. After washing three times with phosphate buffer saline containing 0.05% Tween 20 (PBS/Tween 20) to remove unattached biotin-EBS oligonucleotides, 200 µL of PBS/Tween 20 solution containing 2% bovine serum albumin (BSA) was added to each well, followed by reaction at 37 °C for 1 hour to block the surface of the plate where no oligonucleotide was attached.
The solution containing the sample compound and the EGR-1 protein was added to the biotin-EBS oligonucleotide coated plate prepared in step (2).
The compound sample (1 µL) was reacted with the EGR-1 overexpressing cell lysate containing 10 mM Tris, pH 7.5, 50 mM KCl, 2% BSA and 8% glycerol at room temperature for 30 minutes, and then added to a reaction well coated with biotin-EBS and further reacted at room temperature for one hour. After washing three times with PBS/Tween 20 solution, an EGR-1 antibody was added to the PBS solution supplemented with 2% BSA and 5 mM NaCl in an amount of 50 µL per each well. The mixture was incubated at room temperature for one hour, washed three times with PBS/Tween 20 solution, and then treated with horseradish peroxidase-conjugated secondary antibody (Goat anti-rabbit IgG antibody, Cell Signaling Technology company, Danvers, Mass., USA) diluted by 1:1000 at room temperature for one hour. After washing five times with PBS/Tween 20 solution, a substrate tetramethylbenzidine solution was added to each well in an amount of 50 µL. After reacting for 5 minutes, the reaction was stopped by adding 100 µL of 2 N sulfuric acid solution. The DNA binding inhibitory activity of EGR-1 was measured by absorbance at 450 nm according to Equation 1 below. EGR-1 DNA binding inhibitory activity (%) = 100−{(As/Ap)×100} [formula]
As: absorbance of a sample prepared by reacting an EGR-1-overexpressing cell lysate with the compound.
Ap: absorbance of the sample treated only with EGR-1-overexpressing cell lysate.

EGR-1 [3] = molecular target: T1, EGR-1; assay: Electrophoretic mobility shift assay (EMSA) of EGR-1 DNA binding; design: made in house; host or cells: Sf21 insect cells (crude cell extract); conditions: EGR-1 overexpressing Sf21 cell extract, biotin-labeled probe; FIG. 13
Method: When a nucleic acid and a protein are bound to each other, the complex of the nucleic acid and the protein moves more slowly than the nucleic acid alone, so that in an EMSA, a band of the nucleic acid bound to the protein appears higher than a band of only the nucleic acid.
In detail, the protein-DNA binding was analyzed by purchasing a LightShift Chemiluminescence EMSA kit (ThermoFisher Scientific, Waltham, MA, USA). The probe sequence for EGR-1 was synthesized by Macrogen company (Seoul, Korea) by ordering a deoxynucleotide labeled with biotin at the EGR-1 binding sequence (5'-biotin-AGAGTGTGTCTCCTTCGCACACATC-3'). The EGR-1 protein used in the experiment was an Sf21 insect cell extract overexpressing human EGR-1 protein as described in Yeo et al. [Journal of Investigative Dermatology 2021; 141:1851-1855]. Wild-type Sf21 cell extract was used as a negative control. After reacting 3 µg of EGR-1 overexpressing Sf21 cell extract, 1 µl of the compound of the present invention at a concentration of 20 mM, 50 fmol of the biotin-labeled EGR-1 binding deoxyoligonucleotide probe, and 1 µg poly(dI-dC) (Amersham Pharmacia Biotech Inc) for 20 minutes, electrophoresis was performed on a 6% non-denaturing polyacrylamide gel. The electrophoresed sample was transferred to a nylon membrane (Immobilon-Ny+ Transfer membrane, Millipore) and soaked in 5% skim milk solution for 30 minutes. Then, horseradish peroxidase-conjugated streptavidin was added and reacted for 15 minutes, and after washing unbound proteins from the membrane, the EGR-1-DNA complex was detected on X-ray film using an enhanced chemiluminescence (ECL) detection system (ThermoFisher Scientific). The intensity of the EGR-1-DNA complex band was analyzed using the ImageJ program (National Institute of Health, USA), and the intensity of the sample without the compound was set to 100%, and relative intensities were measured.

T1 sequence (P18146 whole entry): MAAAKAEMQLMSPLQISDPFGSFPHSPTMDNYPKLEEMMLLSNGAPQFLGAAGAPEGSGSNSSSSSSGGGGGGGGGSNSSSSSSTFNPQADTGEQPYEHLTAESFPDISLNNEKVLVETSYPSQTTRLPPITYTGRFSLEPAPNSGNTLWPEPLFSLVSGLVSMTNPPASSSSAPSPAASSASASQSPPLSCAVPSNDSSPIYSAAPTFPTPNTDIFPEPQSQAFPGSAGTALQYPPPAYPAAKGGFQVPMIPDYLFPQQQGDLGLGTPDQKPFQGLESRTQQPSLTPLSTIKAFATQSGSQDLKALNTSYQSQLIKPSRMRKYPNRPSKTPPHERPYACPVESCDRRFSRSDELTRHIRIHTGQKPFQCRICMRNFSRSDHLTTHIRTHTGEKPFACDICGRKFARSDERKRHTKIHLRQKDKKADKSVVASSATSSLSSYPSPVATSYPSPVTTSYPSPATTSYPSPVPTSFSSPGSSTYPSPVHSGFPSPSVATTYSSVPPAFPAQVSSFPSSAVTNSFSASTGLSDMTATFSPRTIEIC

Row | SMILES | epidermal thickness [1] | dermal thickness [1] | expression of filaggrin [1] | expression of TSLP [1] | expression of MPO (neutrophil marker) [1] | expression of F4/80 (macrophage marker) [1] | mast cell infiltration [1] | number of mast cells infiltrated [1] | Inhibition Rate (%) (EGR-1 [2]) | also measured
1 | O=C1Nc2c(F)cccc2/C1=N/NC(=S)Nc1ccc(C(F)(F)F)cc1 [Compound 21, (Z)-2-(7-fluoro-2-oxoindolin-3-ylidene)-N-(4-(trifluoromethyl)phenyl)hydrazinethioamide] | 25.22±2.993 µm | 163.4±7.905 µm | recovered to a level similar to normal tissue | significantly decreased | decreased similar to normal tissue | decreased similar to normal tissue | significantly reduced | 18±2 per 2.5 cm^2 | 70.20% | expression level of IL-1β mRNA (IL-1β): decreased dose-dependently; macroscopic skin condition [1]: significant improvement in skin condition; expression level of TSLP mRNA (TSLP): decreased dose-dependently; expression level of IL-6 mRNA (IL-6): decreased dose-dependently; DNA binding of EGR-1 (EGR-1-DNA complex band) (EGR-1 [3]): inhibited DNA binding of EGR-1 in a concentration-dependent manner
2 | C[C@@H]1CCN(C(=O)CC#N)C[C@@H]1N(C)c1ncnc2[nH]ccc12 [tofacitinib, Tofacitinib, reference compound] | 27.09±1.719 µm | 154.5±11.32 µm | recovered to a level similar to normal tissue | significantly decreased | decreased similar to normal tissue | decreased similar to normal tissue | significantly reduced | 14±5 per 2.5 cm^2 |  | 
3 | COc1ccc2c(c1)NC(=O)/C2=N\NC(=S)Nc1ccc(C#N)cc1 [Compound 25, (Z)-N-(4-cyanophenyl)-2-(6-methoxy-2-oxoindolin-3-ylidene)hydrazinethioamide] | 23.46±1.530 µm | 157.8±17.05 µm | recovered to a level similar to normal tissue | significantly decreased | decreased similar to normal tissue | decreased similar to normal tissue | significantly reduced | 15±5 per 2.5 cm^2 | 76.13% | expression level of IL-1β mRNA (IL-1β): decreased dose-dependently; macroscopic skin condition [1]: significant improvement in skin condition; expression level of TSLP mRNA (TSLP): decreased dose-dependently; expression level of IL-6 mRNA (IL-6): decreased dose-dependently; DNA binding of EGR-1 (EGR-1-DNA complex band) (EGR-1 [3]): inhibited DNA binding of EGR-1 in a concentration-dependent manner
4 | N#Cc1ccc(NC(=S)N/N=C2\C(=O)Nc3c(F)cccc32)cc1 [Compound 20, (Z)-N-(4-cyanophenyl)-2-(7-fluoro-2-oxoindolin-3-ylidene)hydrazinethioamide] |  |  |  |  |  |  |  |  | 44.93% | 
5 | NC(=S)N/N=C1\C(=O)Nc2cc(Br)ccc21 [Compound 41, (Z)-2-(6-bromo-2-oxoindolin-3-ylidene)hydrazinethioamide] |  |  |  |  |  |  |  |  | 49.00% | 
6 | COc1ccc2c(c1)NC(=O)/C2=N\NC(=S)Nc1ccccc1 [Compound 22, (Z)-2-(6-methoxy-2-oxoindolin-3-ylidene)-N-phenylhydrazinethioamide] |  |  |  |  |  |  |  |  | 51.33% | 
7 | Cc1cccc(NC(=S)N/N=C2\C(=O)Nc3ccc(F)cc32)c1 [Compound 64, (Z)-2-(5-fluoro-2-oxoindolin-3-ylidene)-N-(m-tolyl)hydrazinethioamide] |  |  |  |  |  |  |  |  | 37.90% | 
8 | Cc1ccc2c(c1)/C(=N/NC(=S)Nc1ccccc1)C(=O)N2 [Compound 72, (Z)-2-(5-methyl-2-oxoindolin-3-ylidene)-N-phenylhydrazinethioamide] |  |  |  |  |  |  |  |  | 19.57% | 
9 | O=C1Nc2cc(Cl)ccc2/C1=N/NC(=S)Nc1ccccc1 [Compound 60, (Z)-2-(6-chloro-2-oxoindolin-3-ylidene)-N-phenylhydrazinethioamide] |  |  |  |  |  |  |  |  | 48.07% | 
